Structures are written as SMILES. ≈ marks a conversion by molar mass, not a printed value.

The solubility (kinetic) is the concentration staying in solution when a stock, usually in DMSO, is diluted into the medium.

For the series the following is noted: buffer; pH 7.4; 200.0 µM.
The molecule `Cc1nc2ccc(NC(=O)C3CCCCC3)cc2s1` showed a solubility (kinetic) of 13.2 µg/mL (≈ 48.1 µM).
Under `Cc1noc(C)c1-c1nc(CS(=O)(=O)c2ccccc2)no1` stands 8 µg/mL (≈ 25.1 µM).
Take `COc1cccc(/C=C/C(=O)NCC2CCCCC2)c1`: the solubility (kinetic) is 16.4 µg/mL (≈ 60 µM).
On to `Cc1ccc(S(=O)(=O)N2CCN(C(=O)N(C)C)CC2)cc1`, for which the kinetic solubility is over 46.7 µg/mL.
Under `Cn1cc(CC(=O)NCc2ccc(F)cc2)c2ccccc21` stands over 44.5 µg/mL.
Regarding `Cc1c(N)cc(N)cc1C(=O)O`, the kinetic solubility is over 24.9 µg/mL.
Under `O=C(NCCc1cccc(Cl)c1)c1cc2ccccc2oc1=O` stands under 0.7 µg/mL; under `COc1ccc2[nH]c(C(=O)Nc3ccccc3Cl)cc2c1`, under 0.3 µg/mL.
Under `Cc1cccc(NC(=O)CCS(=O)(=O)c2ccc(Cl)cc2)c1` stands 5.5 µg/mL (≈ 16.3 µM); under `CC(=O)c1cc(C#N)c(SCc2ccc([N+](=O)[O-])cc2)nc1C`, under 0.2 µg/mL; under `CC(C)(C)c1ccc(S(=O)(=O)N2CCN(C3CCCC3)CC2)cc1`, under 0.4 µg/mL.
Under `COc1cc(C2=NC(CO)(CO)CO2)cc(OC)c1OC` stands over 44.6 µg/mL.
The molecule `CNC(=S)N1CCC(NC(=O)c2ccco2)CC1` returned a kinetic solubility of over 40.1 µg/mL.
In turn, `ClCc1cc2ccccc2nc1Cl` displayed a kinetic solubility of 6.5 µg/mL (≈ 30.6 µM).
`COC(=O)Cn1c(=O)oc2ccc(C)cc21` registered a kinetic solubility of over 33.2 µg/mL.
The same measure for `CC(=O)Nc1ccc(Cl)c(-c2nc3ncccc3o2)c1`: 41.5 µg/mL (≈ 144 µM).
The same measure for `COc1cccc(C(=O)N2CCN(C(=O)C3CC3)CC2)c1`: 40.7 µg/mL (≈ 141 µM); for `O=S1(=O)N=C2CCCCCN2C(c2ccc(F)cc2)N1` (configuration not stated): over 44.6 µg/mL; for `N#CCCN(C(=O)COC(=O)CCc1ccccc1)c1ccccc1`: 44.8 µg/mL (≈ 133 µM).
`CCOC(=O)c1c(NC(=O)C2CC2)sc2c1CC(C)(C)OC2` showed a kinetic solubility of under 0.7 µg/mL.
`Cc1ccc(C)c(OCCCCN2CCNCC2)c1C.O=C(O)C(=O)O` returned a solubility (kinetic) of over 55 µg/mL.
Under `CCOc1cc(C(N)=O)cc(Cl)c1OCC` stands 34.6 µg/mL (≈ 142 µM); under `Cc1ccc(NS(=O)(=O)c2cccc3nsnc23)cc1C`, 39.2 µg/mL (≈ 123 µM).
Take `Cc1cccc(NC(=O)NCCN2CCN(c3ccccc3)CC2)c1C`: the kinetic solubility is 11.5 µg/mL (≈ 32.6 µM).
The same measure for `NC(=O)Nc1ccc(C(=O)OCC(=O)NC2CCCc3ccccc32)cc1` (configuration not stated): 11 µg/mL (≈ 29.9 µM); for `O=C(CSc1ncccn1)NC1CCS(=O)(=O)C1` (configuration not stated): 39.7 µg/mL (≈ 138 µM).
For `COc1ccc2cc(C(=O)O)n(CC(=O)c3ccccc3)c2c1`, the solubility (kinetic) is over 46.4 µg/mL.
Under `N#Cc1c(NCc2ccccc2)ccnc1Cl` stands 20.2 µg/mL (≈ 82.9 µM); under `COc1ccc(Nc2nc(NCc3ccco3)nc(N)c2[N+](=O)[O-])cc1`, 0.2 µg/mL (≈ 0.561 µM); under `O=C(c1cc2cc([N+](=O)[O-])ccc2oc1=O)N1CCN(C2CCCCC2)CC1`, over 57.8 µg/mL.
Molecule `COc1ccc(C(=O)OCc2c(C)noc2C)cc1` returned a solubility (kinetic) of over 39.2 µg/mL.
`CC[N+](CC)(CC)CC(=O)Nc1c(C)cccc1C.[Br-]` showed a kinetic solubility of over 51.5 µg/mL.
Take `Cn1c(SCc2ccc([N+](=O)[O-])cc2)nnc1-c1ccncc1`: the kinetic solubility was over 49.1 µg/mL.
Under `COc1ccc2nc(C)cc(N3CCN(c4ccccc4)CC3)c2c1` stands 2.7 µg/mL (≈ 8.1 µM); under `C/C(=C/c1ccccc1)C(=O)N1CCN(c2ccccc2)CC1`, 37.1 µg/mL (≈ 121 µM).
`O=C(COC(=O)c1ccccc1O)NCc1ccccc1Cl` displayed a kinetic solubility of 5 µg/mL (≈ 15.6 µM).
Under `COc1ccc(CNC(=O)COC(=O)[C@H](Cc2ccccc2)NC(=O)c2cccs2)cc1` stands 51 µg/mL (≈ 113 µM); under `Cc1ccc(CNc2ccccc2C(=O)O)s1`, 23 µg/mL (≈ 93 µM); under `COc1cc(C(=O)NC(c2ccccc2)c2ccccc2)cc(OC)c1C`, under 0.8 µg/mL.
The same measure for `CC(=O)c1c(C)[nH]c(C(=O)Nc2ccc(F)c(F)c2F)c1C`: 1.8 µg/mL (≈ 5.8 µM).
The same measure for `CNC(=O)N(C)c1ccc(C(O)(C(=O)OC)C(F)(F)F)cc1` (configuration not stated): 46.7 µg/mL (≈ 146 µM); for `CC(C)c1cccc(C(C)C)c1NC(=O)c1ccccc1`: 1.7 µg/mL (≈ 6.04 µM); for `COc1ccc(C(=O)NCCc2ccccc2)cc1[N+](=O)[O-]`: over 45 µg/mL.
In turn, `Cc1ccc(NC(=O)COC(=O)Cn2cnc3ccccc32)c(C)c1` registered a kinetic solubility of 42.4 µg/mL (≈ 126 µM).
Take `O=C(CSc1nc2ccccc2[nH]1)NCc1ccc(F)cc1`: the solubility (kinetic) was over 47.3 µg/mL.
Under `NC(CCCCCP(=O)(c1ccccc1)c1ccccc1)C(=O)O` (configuration not stated) stands 40.4 µg/mL (≈ 117 µM); under `O=C(Nc1ccc(Cl)cc1)C1CCN(C(=O)c2ccco2)CC1`, over 49.9 µg/mL; under `COc1ccc(OC)c(N(CC(=O)N2CCOCC2)S(C)(=O)=O)c1`, over 53.8 µg/mL.
In turn, `CC1=C(C(=O)OC2CCCCC2)C(c2ccc(F)cc2)NC(=O)N1` (configuration not stated) returned a kinetic solubility of 31.2 µg/mL (≈ 93.9 µM).
Under `CC1(C)Cc2ccccc2-c2nc(NCCCO)[nH]c(=O)c21` stands 39.5 µg/mL (≈ 132 µM); under `CC(C)(C)CN1CCN(Cc2cccnc2)CC1CCO` (configuration not stated), over 43.7 µg/mL; under `COc1cccc(CC(=O)Nc2ccccc2N2CCCC2)c1`, 43.9 µg/mL (≈ 141 µM).

For the origin of these results see PubChem BioAssay AID1996.
